Measurements reported in patent publication US9198875B2, “Controlled delivery of bioactive agents from decomposable films” (Massachusetts Institute of Technology, priority 2008, dated 2015).
In brackets after ≈: the same amount, converted by molar mass. Where two headings read alike, the source gives them in different places.

Legend:
[1] = Release of small molecules from polymeric cyclodextrin-containing LbL films in phosphate buffer (fluorescence spectroscopy); type: physicochemical; details: 20 bilayers; for Release Rate: from poly A3/poly(BCD) films, phosphate buffer pH 7.4
Method: Release profiles were investigated by monitoring the release of the small molecule using a fluorimeter and the degradation of non-radiolabeled films. For drug release experiments, 20 bilayer films were constructed using carboxymethylbeta-cyclodextrin polymer:drug conjugate solution. The deposition solutions were prepared by combining 25 μM carboxymethylbeta-cyclodextrin polymers solution in 0.1 M sodium acetate buffer (1 Mn=8,000), with the various small molecules. After fabrication, each twenty bilayer film was immersed in 10 mL phosphate buffer solution (pH 7.4, 137 mM NaCl, 2.7 mM KCl, 10 mM Na2HPO4). A 1 mL sample was extracted at various time points and analyzed via fluorescence spectroscopy. Degradation vials were tightly capped between sample extractions to prevent evaporation of the buffer solution. Raw spectrum data were converted to micrograms (μg) of drug released using a calibration curve for a given molecule at a defined emission wavelength.
Poly(BCD)-prodan inclusion complexes were made by dissolving prodan in poly(BCD) as described for poly(BCD)-ciprofloxacin inclusion complexes in Example 3. (Poly 1/poly(BCD)-prodan)20 films were constructed by layer-by-layer deposition and prodan release studies were conducted as described in Example 1.
Formation of poly(BCD): drug inclusion complexes and film construction were achieved by methods as described in Examples 1-3; release studies were performed as described in Example 4. Solubility values and complexation coefficients were determined and/or calculated according to previously published methods (Brewster et al. 2007. “Cyclodextrins as pharmaceutical solubilizers.” Advanced Drug Delivery. 59: 645-666).

[2] = Complexation coefficients of drugs with cyclodextrins; type: physicochemical; details: calculated from solubility values
[3] = Solubility of drugs in water and complexed with cyclodextrins; type: physicochemical
[4] = Release of 14C-dextran sulfate from LbL films in phosphate buffer (scintillation counting); type: physicochemical; details: films built with poly A3, 20 bilayers, phosphate buffer pH 7.4; approximately linear kinetics
Method: Release profiles were investigated by monitoring the release of ^14C-dextran sulfate and the degradation of non-radiolabeled films. For drug release experiments, 20 bilayer radiolabeled films were constructed using ^14C-dextran sulfate solution. The radiolabled deposition solutions were prepared by combining ^14C-dextran sulfate (1.5 mCi/g, Mn=8,000), unlabeled dextran sulfate (Mn=8,000), and 100 mM acetate buffer to yield a total concentration of dextran sulfate (unlabeled plus labeled) to 2 mg/mL (1 μCi/mL ^14C). After fabrication, each twenty bilayer film was immersed in 30 mL phosphate buffer solution (pH 7.4, 137 mM NaCl, 2.7 mM KCl, 10 mM Na2HPO4). A 1 mL sample was extracted at various time points and analyzed via scintillation counting. Scintillation counting was performed on a Tri-carb liquid scintillation counter (Model U2200) and the amount of radiolabel in each sample vial was measured using ^14C protocol. Degradation vials were tightly capped between sample extractions to prevent evaporation of the buffer solution. Raw data (disintegrations per minute, DPM) were converted to micrograms (μg) of drug released using the conversion factor 2.2×10^6 DPM=1 μCi, the specific radioactivity of the drug, and knowledge of the ratio of total drug to labeled drug in the deposition solution.

[5] = tested on: cyclooxygenase (COX); assay: Inhibition of cyclooxygenase by film release buffer in A549 cells, prostaglandin E2 concentration measured; type: cell-based, human; details: A549 cells exposed to aliquots of release buffer, buffer replaced every 24 hours
Excerpt: To determine if polymeric cyclodextrin alters drug activity, the inhibition of cyclooxygenase (COX) by diclofenac was investigated. COX is the rate limiting enzyme in the production of prostaglandins, which are important in homeostasis and inflammatory pathways (T. D. Warner et al., Proceedings of the National Academy of Sciences of the United States of America 1999, 96, 9966). A549 human lung carcinoma cells were exposed to aliquots of release buffer, and prostaglandin E2 concentration was measured. In the experiment, the release buffer was replaced every 24 hours, so that time points measured the activity of the drug released during each specific 24 hour period. […] The approach here is a utilization of a charged polymeric carrier capable of facile reversible complexation with the drug of choice in alternation with a degradable polyion. Charged cyclodextrin polymers were used for the trapping of cyclodextrin-drug complexes in stable, surface eroding films capable of drug release within the cyclodextrin carrier without altering activity. […] This technology can be applied to nanomedicine coatings for applications in personalized medicine, transdermal delivery, medical devices, nanoparticulate carriers, prosthetic implants, as well as small molecules for imaging, agriculture, and basic scientific research.

[6] = drug complexed with cyclodextrins, aqueous with cosolvent or surfactant or cyclodextrin, read-out: St, solubility complexed with cyclodextrins

O=C(O)c1cn(C2CC2)c2cc(N3CCNCC3)c(F)cc2c1=O [Ciprofloxacin]
time through which ciprofloxacin continued to be released (latest time point tested) ([1]; poly 1/poly(BCD)-ciprofloxacin films, phosphate buffer): ≥ 69.3 h

COc1ccc2cc([C@H](C)C(=O)O)ccc2c1 [Naproxen]
Release Rate [1]: 1 ng/h | Kc, complexation coefficient [2]: 4300 M⁻¹

CC(C(=O)O)c1ccc(-c2ccccc2)c(F)c1 (stereo not drawn) [Flurbiprofen]
solubility [3, 6]: 540 µg/mL (≈ 2210 µM) | S0, solubility in water ([3]; in water): 8 µg/mL | Release Rate [1]: 4 ng/h | Kc, complexation coefficient [2]: 4930 M⁻¹

dextran sulfate
time span over which dextran sulfate continued to be released [4]: at least 8 days

O=C(O)Cc1ccccc1Nc1c(Cl)cccc1Cl [Diclofenac]
solubility [3, 6]: 2800 µg/mL (≈ 9450 µM) | solubility ([3]; in water, read-out: S0, solubility in water): 2 µg/mL (≈ 6.75 µM) | activity of released drug: COX inhibition, suppressed prostaglandin production [5]: highly active | Release Rate [1]: 5 ng/h
